Structures are written as SMILES.

Data set [1] is described as follows: Elimination and retention of gadolinium in normal mice. The note with it: for route of elimination (dynamic whole-body MRI): 100 μmol/kg i.v.; for Gadolinium content, Sum, % ID per Organ / Gadolinium content, Bone, % ID per Gram / Gadolinium content, Bone, % ID per Organ / Gadolinium content, Brain, % ID per Gram / Gadolinium content, Brain, % ID per Organ / Gadolinium content, Heart, % ID per Gram / Gadolinium content, Heart, % ID per Organ / Gadolinium content, Kidneys, % ID per Gram / Gadolinium content, Kidneys, % ID per Organ / Gadolinium content, Liver, % ID per Gram / Gadolinium content, Liver, % ID per Organ / Gadolinium content, Lung, % ID per Gram / Gadolinium content, Lung, % ID per Organ / Gadolinium content, Muscle, % ID per Gram / Gadolinium content, Muscle, % ID per Organ / Gadolinium content, Serum, % ID per Gram / Gadolinium content, Serum, % ID per Organ / Gadolinium content, Spleen, % ID per Gram / Gadolinium content, Spleen, % ID per Organ / Gadolinium content, Stomach, % ID per Gram / Gadolinium content, Stomach, % ID per Organ: 24 h after injection, 100 μmol/kg; for Gadolinium content, Bone, % ID per Gram / Gadolinium content, Bone, % ID per Organ / Gadolinium content, Brain, % ID per Gram / Gadolinium content, Brain, % ID per Organ / Gadolinium content, Heart, % ID per Gram / Gadolinium content, Heart, % ID per Organ / Gadolinium content, Kidneys, % ID per Gram / Gadolinium content, Kidneys, % ID per Organ / Gadolinium content, Liver, % ID per Gram / Gadolinium content, Liver, % ID per Organ / Gadolinium content, Lung, % ID per Gram / Gadolinium content, Lung, % ID per Organ / Gadolinium content, Muscle, % ID per Gram / Gadolinium content, Muscle, % ID per Organ / Gadolinium content, Serum, % ID per Gram / Gadolinium content, Serum, % ID per Organ / Gadolinium content, Spleen, % ID per Gram / Gadolinium content, Spleen, % ID per Organ / Gadolinium content, Stomach, % ID per Gram / Gadolinium content, Stomach, % ID per Organ: n = 4. It counts as in vivo, mouse. The procedure:
FIG. 55. […] The liver enhances slightly with first-blood pass but the signal rapidly returns to baseline after 20 min.
At 24 h post-injection (p.i.), >99% of the injected dose of gadolinium was eliminated from the body (Table B).

Data set [2] has as its system ECM proteins from fibrotic rat liver. The data set can be described thus: Relaxivity measurements in ECM. It counts as binding. The note with it: for relaxivity in ECM: PBS, pH 7.4, 2 h, 37° C., 1.41T; for relaxivity in ECM with 100-fold excess of hydrazine: aldehydes blocked with N2H4. On the procedure: Liver fibrosis was induced in male Sprague Dawley rats by ligation of the common bile duct (CD®, Charles River Labs, Wilmington, MA). Ten days after common bile duct ligation, the fibrotic liver was harvested and sequential extractions were performed using the CNMCS (Cytosol/Nucleus/Membrane/Cytoskeleton) Compartmental Protein Extraction kit (Cytomol, Union City, CA) according to manufacturer's instructions. In brief, frozen tissues (150-200 mg) were homogenized and with solvents provided in the kit to sequentially to remove: cytosolic proteins, nuclear proteins, membrane proteins, and cytoskeletal proteins, leaving a final insoluble fraction enriched for ECM proteins.
Relaxivity Measurements in ECM
The enriched ECM proteins from 800 mg of fibrotic rat liver were suspended in 1 ml PBS. The ECM protein concentration was about 10% (5 mg in a 50 μL aliquot determined by weight after lyophilization). An aliquot of the solution (50 μL) was treated for 2 h at 37° C. with the corresponding molecular probe at a range of concentrations (0.01-0.1 mM) and then longitudinal (T1) relaxation measurements was recorded using a Bruker mq60 Minispec at 1.41 T and 37° C. For the blocking experiment with N2H4, a 100 fold-excess of N2H4 referred to the concentration of molecular probe was added to the solution before the incubation. Longitudinal (T1) relaxation times were measured via an inversion recovery experiment using 10 inversions of duration ranging between 0.05×T1 and 10×T1. Relaxivity (r1) was determined from the slope of a plot of 1/T1 vs metal concentration for 4 concentrations.

Another data set concerns IRI kidney cortex. Kind of data set: MR imaging of kidney ischemia-reperfusion (IRI) model. The data set is classed as in vivo, mouse. The note with it: for Change in longitudinal relaxation time (ΔT1): 4 h post injection, n = 11. On the procedure:
Kidney Ischemia-Reperfusion (IRI) Model:
Male C57BL/6 mice (10-12 weeks old; Charles River Laboratories) were anesthetized with ketamine/xylazine (100/10 mg/kg; IP). Animals were then placed prone while maintaining rectal temperature strictly at 37° C. with a feedback-regulated heating pad. The skin incision was performed on the left lower flank while adhering to strict aseptic procedures. After accessing the retroperitoneal space, the left kidney, and the left renal artery-vein was identified. Ischemia was induced by applying a micro serrefine clip onto the renal artery and vein. Successful ischemia was visually confirmed by a gradual uniform darkening of the kidney. The clamp was removed 26 minutes later, and a rapid change verified successful reperfusion in kidney color from a dark maroon to a healthy dark pink. The skin was closed using surgical staples, and animals were returned to their home cages. Analgesia was provided by buprenorphine (0.1 mg/kg, SC, bid for three days starting 1 hour before IRI surgery).
Animals were imaged 14 days after IRI and were euthanized after imaging. The right and left kidneys were removed, cortex and medulla regions of each kidney were separated for further analysis.
For kidney imaging, a series of three-dimensional inversion-recovery FLASH images were acquired at baseline and 4 hours after Mn-16 administration with inversion recovery times of 7, 307, 557, 707, 857, 1507, 3007, 5007, and 7007 msec. (TR/TE/FA=5 see/72 msec, field of view (FOV) […], dimension 128×128, slice thickness 0.7 mm).
For kidney imaging analysis, longitudinal relaxation time (T1) was obtained by fitting inversion recovery data to a T1 relaxation equation (M0×(1−2 exp(−TI/T1))) and change in T1 (ΔT1) was calculated by subtracting T1 measured prior to probe injection (T1pre) from T1 measured after injection (T1post), eq 23.

Take `NN1CCN(C(=O)CCC(C(=O)[O-])N2CCN(CC(=O)[O-])CCN(CC(=O)[O-])CCN(C(CCC(=O)N3CCN(N)CC3)C(=O)[O-])CC2)CC1.[Gd+3]` (stereo not drawn) [Gd-9, cis-1,4-Gd-(CHyd)2]: in data set [1], the “route of elimination (dynamic whole-body MRI)” value is listed as “eliminated exclusively via the kidneys into the bladder”; the “Gadolinium content, Sum, % ID per Organ” value amounted to 0.625 % ID per Organ; the “Gadolinium content, Bone, % ID per Gram” value was determined as 0.0144 ± 0.0125 % ID per Gram; the “Gadolinium content, Bone, % ID per Organ” value is recorded as 0.0455 ± 0.0174 % ID per Organ. For the same compound, in data set [1], the “Gadolinium content, Brain, % ID per Gram” value was 0.00336 ± 0.00277 % ID per Gram; the “Gadolinium content, Brain, % ID per Organ” value was found to be 0.0013 ± 0.00125 % ID per Organ; the “Gadolinium content, Heart, % ID per Gram” value was found to be 0.0788 ± 0.0151 % ID per Gram; the “Gadolinium content, Heart, % ID per Organ” value is 0.00708 ± 0.000802 % ID per Organ. In data set [1], the “Gadolinium content, Kidneys, % ID per Gram” value was 1.33 ± 0.152 % ID per Gram; the “Gadolinium content, Kidneys, % ID per Organ” value amounted to 0.377 ± 0.0103 % ID per Organ; the “Gadolinium content, Liver, % ID per Gram” value is reported as 0.0686 ± 0.0102 % ID per Gram; the “Gadolinium content, Liver, % ID per Organ” value is listed as 0.0341 ± 0.0250 % ID per Organ. In addition, in data set [1], the “Gadolinium content, Lung, % ID per Gram” value was 0.166 ± 0.100 % ID per Gram; the “Gadolinium content, Lung, % ID per Organ” value is given as 0.0289 ± 0.00394 % ID per Organ; the “Gadolinium content, Muscle, % ID per Gram” value stood at 0.0132 ± 0.00294 % ID per Gram; the “Gadolinium content, Muscle, % ID per Organ” value is on record as 0.105 ± 0.0225 % ID per Organ. In data set [1], the “Gadolinium content, Serum, % ID per Gram” value is reported as 0.00138 ± 0.000861 % ID per Gram; the “Gadolinium content, Serum, % ID per Organ” value came to 0.00376 ± 0.00113 % ID per Organ; the “Gadolinium content, Spleen, % ID per Gram” value worked out at 0.140 ± 0.0558 % ID per Gram; the “Gadolinium content, Spleen, % ID per Organ” value is recorded as 0.00618 ± 0.000767 % ID per Organ. In data set [1], the “Gadolinium content, Stomach, % ID per Gram” value is listed as 0.114 ± 0.0288 % ID per Gram and the “Gadolinium content, Stomach, % ID per Organ” value is given as 0.0157 ± 0.00274 % ID per Organ. For the same compound, in data set [2], the “relaxivity in ECM” value is 7.8 mM⁻¹ s⁻¹ and the “relaxivity in ECM with 100-fold excess of hydrazine” value was 6.6 mM⁻¹ s⁻¹.
As for `NN1CCN(C(=O)CCC(C(=O)[O-])N2CCN(CC(=O)[O-])CCN(C(CCC(=O)N3CCN(N)CC3)C(=O)[O-])CCN(CC(=O)[O-])CC2)CC1.[Gd+3]` (stereo not drawn) [Gd-10, trans-1,7-Gd-(CHyd)2], in data set [1], the “route of elimination (dynamic whole-body MRI)” value is “eliminated exclusively via the kidneys into the bladder”; the “Gadolinium content, Sum, % ID per Organ” value was 0.584 % ID per Organ; the “Gadolinium content, Bone, % ID per Gram” value is recorded as 0.0180 ± 0.00486 % ID per Gram; the “Gadolinium content, Bone, % ID per Organ” value is listed as 0.0469 ± 0.0126 % ID per Organ. Also, in data set [1], the “Gadolinium content, Brain, % ID per Gram” value was determined as 0.00206 ± 0.000288 % ID per Gram; the “Gadolinium content, Brain, % ID per Organ” value was determined as 0.000776 ± 0.000169 % ID per Organ; the “Gadolinium content, Heart, % ID per Gram” value amounted to 0.0219 ± 0.00212 % ID per Gram; the “Gadolinium content, Heart, % ID per Organ” value came to 0.00203 ± 0.000132 % ID per Organ. Moreover, in data set [1], the “Gadolinium content, Kidneys, % ID per Gram” value came out at 1.45 ± 0.262 % ID per Gram; the “Gadolinium content, Kidneys, % ID per Organ” value worked out at 0.365 ± 0.0315 % ID per Organ; the “Gadolinium content, Liver, % ID per Gram” value is recorded as 0.105 ± 0.00715 % ID per Gram; the “Gadolinium content, Liver, % ID per Organ” value was found to be 0.0572 ± 0.0426 % ID per Organ. Moreover, in data set [1], the “Gadolinium content, Lung, % ID per Gram” value is on record as 0.157 ± 0.00422 % ID per Gram; the “Gadolinium content, Lung, % ID per Organ” value is recorded as 0.0197 ± 0.00107 % ID per Organ; the “Gadolinium content, Muscle, % ID per Gram” value was found to be 0.00886 ± 0.000914 % ID per Gram; the “Gadolinium content, Muscle, % ID per Organ” value came to 0.0709 ± 0.0073 % ID per Organ. Moreover, in data set [1], the “Gadolinium content, Serum, % ID per Gram” value stood at 0.00169 ± 0.000259 % ID per Gram; the “Gadolinium content, Serum, % ID per Organ” value turned out to be 0.00398 ± 0.000175 % ID per Organ; the “Gadolinium content, Spleen, % ID per Gram” value is on record as 0.165 ± 0.0817 % ID per Gram; the “Gadolinium content, Spleen, % ID per Organ” value amounted to 0.0086 ± 0.00085 % ID per Organ. In addition, in data set [1], the “Gadolinium content, Stomach, % ID per Gram” value came to 0.0414 ± 0.02775 % ID per Gram and the “Gadolinium content, Stomach, % ID per Organ” value is 0.00869 ± 0.00207 % ID per Organ. In data set [2], the “relaxivity in ECM” value was determined as 7.2 mM⁻¹ s⁻¹ and the “relaxivity in ECM with 100-fold excess of hydrazine” value is 6.7 mM⁻¹ s⁻¹.
For the compound `NOC(CCC(=O)NCCCN1CCN(CC(=O)[O-])Cc2cccc(n2)CN(CC(=O)[O-])CC1)C(=O)O.[Mn+2]` (stereo not shown) [Mn-16], in the data set on IRI kidney cortex (IRI kidney cortex), the Mn concentration is on record as 90 nmol/g and the “Change in longitudinal relaxation time (ΔT1)” value was -395 ms. Besides, in the data set with IRI kidney cortex (contralateral cortex), the Mn concentration came to 60 nmol/g and the “Change in longitudinal relaxation time (ΔT1)” value is -230 ms.

The values are drawn from patent US20240285808A1, “MOLECULAR PROBES FOR IN VIVO DETECTION OF ALDEHYDES” (The General Hospital Corporation, priority 2021, published 2024).
